Measurements from PubChem BioAssay (NCI).
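Compound exposure: 48 hours, 5 concentrations, 96-well plates. TGI: concentration producing complete growth inhibition.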

What was measured:
Experiment in all cases: inhibition of tumour cell growth, NCI panel, 48 h
COLO 205 colon = tested on: COLO 205 colon
DLD-1 colon = tested on: DLD-1 colon
HCT-116 colon = tested on: HCT-116 colon
HL-60(TB) leukemia = tested on: HL-60(TB) leukemia
K-562 leukemia = tested on: K-562 leukemia
M19-MEL melanoma = tested on: M19-MEL melanoma
NCI-H522 lung = tested on: NCI-H522 lung
SF-268 CNS = tested on: SF-268 CNS
TK-10 renal = tested on: TK-10 renal
UACC-62 melanoma = tested on: UACC-62 melanoma
DU-145 prostate = tested on: DU-145 prostate

SMILES | TGI (COLO 205 colon) | TGI (DLD-1 colon) | TGI (HCT-116 colon) | TGI (HL-60(TB) leukemia) | TGI (K-562 leukemia) | TGI (M19-MEL melanoma) | TGI (NCI-H522 lung) | TGI (SF-268 CNS) | TGI (TK-10 renal) | TGI (UACC-62 melanoma) | TGI (DU-145 prostate)
O=C(Cn1cc(I)c(C(=O)NCC(O)CO)n1)NCC(O)CO (stereo not drawn) | > 100 µM | > 100 µM | > 100 µM | > 100 µM | > 100 µM | > 100 µM | > 100 µM | > 100 µM | > 100 µM | > 100 µM | 
COc1ccc(/C=N/NC(=O)NCCNCCO)cc1 | > 100 µM | > 100 µM | > 100 µM | > 100 µM | > 100 µM | > 100 µM | > 100 µM | > 100 µM | > 100 µM | > 100 µM | 
CN(C)c1ccc(/C=C(\C#N)C(=O)c2ccccc2)cc1Br | > 100 µM | > 100 µM | > 100 µM | 57.6 µM | > 100 µM |  | > 100 µM | > 100 µM | > 100 µM | > 100 µM | 
CCOC1=C2N=C(C(CC)c3ccc(F)cc3)N=C2C(=O)c2ccccc21 (stereo not drawn) | 47 µM | > 30.4 µM | > 61.3 µM | > 73.7 µM | > 100 µM | > 59.4 µM | 76.7 µM | 99.4 µM | 66.7 µM | 29.7 µM | 
C=C1C(=O)OC2C=C(C)CC3C=C(CCC=C(C)CCC12)C(=O)O3 (stereo not drawn) | 115 µM | 137 µM | 85.6 µM | 73.4 µM | 228 µM | 135 µM | 57.9 µM | 145 µM |  | 113 µM | 
C#CCN1C(=O)CN2C(Cl)(Cl)C2(c2ccccc2)c2cc(Cl)ccc21 (stereo not drawn) | > 100 µM | > 100 µM | > 100 µM |  | > 100 µM | > 100 µM | 75.2 µM | > 100 µM | > 100 µM |  | 
CC(C)c1cccc(C(C)C)c1NC(=O)/C(Cc1nc2ccc(Cl)cc2[nH]c1=O)=N\NC(=O)C[N+](C)(C)C | > 100 µM | > 100 µM | > 100 µM | > 100 µM | > 100 µM | > 100 µM | > 100 µM | > 100 µM | > 100 µM | > 100 µM | 
O=C1C(Nc2ccc(S(=O)(=O)Nc3cnc4ccccc4n3)cc2)=CC(=Nc2ccc(S(=O)(=O)Nc3cnc4ccccc4n3)cc2)c2ccccc21 | 33.1 µM | 31.8 µM | 32.9 µM | 54.7 µM | > 74.9 µM | 30.8 µM | 30.5 µM | 38.2 µM | > 54.7 µM | 33.6 µM | 30.7 µM
CC(C)C(N=C1CC2CCC1(C(=O)Nc1ccccc1O)C2(C)C)c1ccccc1 (stereo not drawn) | > 10 µM | > 10 µM | > 10 µM | > 10 µM | > 10 µM | > 10 µM | > 10 µM | > 10 µM | > 10 µM | > 10 µM | 
N#Cc1cc([N+](=O)[O-])ccc1NC(=O)C(=O)Nn1c(=S)[nH]c2ccccc2c1=O | > 100 µM | > 100 µM | > 100 µM | > 100 µM | > 100 µM | > 100 µM | > 100 µM | > 100 µM | > 100 µM |  | 
Cn1cnc([N+](=O)[O-])c1Sc1nnc(-c2ccc(Cl)cc2)n1C | 24.3 µM | 26.3 µM | 25.8 µM |  | 34.2 µM | 27.5 µM | 15.6 µM | 54.7 µM | 31.6 µM | 29 µM | 
COC(=O)C12CCC(CC1=O)C2(C)C (stereo not drawn) | > 100 µM | > 100 µM | > 100 µM | > 100 µM | > 100 µM |  |  |  | > 100 µM | > 100 µM | 
O=C(C#Cc1ccccc1)Nc1ccccc1CC(c1c[nH]c2ccccc12)c1c[nH]c2ccccc12 | 44.2 µM | > 100 µM |  |  | 36.5 µM | 47.8 µM | 26.5 µM | > 100 µM | 96.6 µM | 22 µM | 
O=C(NNC(=O)c1ccccc1O)c1cccs1 | > 100 µM |  | > 100 µM | > 100 µM | > 100 µM |  | 64 µM | > 100 µM | > 100 µM | > 100 µM | > 100 µM
O=C1C2Cc3ccccc3CN2C(=O)N1CN1CCCCC1 (stereo not drawn) | > 100 µM | > 100 µM |  | 88.3 µM | > 100 µM | > 100 µM | > 100 µM | > 100 µM | > 100 µM | > 100 µM | 
CCOP(=O)(OCC)C(Cc1cn(S(=O)(=O)c2ccc(C)cc2)cn1)C(=O)O (stereo not drawn) | > 100 µM |  | > 100 µM | > 100 µM | > 100 µM |  | > 100 µM | > 100 µM | > 100 µM | > 100 µM | > 100 µM
CC(=O)[C@H]1CC[C@@H]2[C@]1(C)CC=C1[C@]23C=C[C@]2(C[C@@H](O)CC[C@]12C)C(C(=O)O)C3C(=O)O (stereo partly drawn) | > 100 µM |  | > 100 µM | > 100 µM | > 100 µM |  | > 100 µM | > 100 µM | > 100 µM | > 100 µM | > 100 µM
Cn1c(=Nc2ccccc2[N+](=O)[O-])sc2ccccc21 | > 100 µM |  | > 100 µM | > 100 µM | > 100 µM |  | > 100 µM | > 100 µM | 45.2 µM | > 100 µM | > 100 µM
COc1ccc(C2=Nn3c(nc4sc5c(c4c3=O)CCCC5)SC2)cc1 | > 100 µM |  | > 100 µM | > 100 µM | > 100 µM |  | > 100 µM | > 100 µM | > 100 µM | > 100 µM | > 100 µM
COC(=O)C1=C(C(=O)OC)SC2(S1)C(C(=O)OC)=C(C(=O)OC)Sc1c2ssc1=O | 2.08 µM |  | 1.78 µM | 0.0492 µM | 2.86 µM |  | 0.581 µM | 10.3 µM | 3.04 µM | 1.37 µM | 2.33 µM
O=c1oc2c(Cl)cc(Cl)cc2cc1-c1cn2c(n1)sc1ccccc12 | > 100 µM |  | > 100 µM | 66.9 µM | 53.3 µM |  | 88.8 µM | > 100 µM | > 100 µM | > 100 µM | > 100 µM
CC(NC(=O)C(NC(=O)C(NC(=O)C(F)(F)F)C(C)C)C(C)C)C(=O)Oc1c(Cl)c(Cl)c(Cl)c(Cl)c1Cl (stereo not drawn) | > 100 µM |  | > 100 µM | > 100 µM | > 100 µM |  | > 100 µM | > 100 µM | > 100 µM | > 100 µM | > 100 µM
C1=Nc2ccc(cc2)-c2ccc(cc2)N=Cc2ccccc2OCc2cccc(n2)COc2ccccc21 | > 100 µM |  | > 100 µM | > 100 µM | > 100 µM |  | > 96.5 µM | > 100 µM | > 93.3 µM | > 100 µM | > 100 µM
CN(C)CCNC(=O)c1cccc2c(NC(CCCN=C(N)N)C(=O)O)c3ccccc3nc12 (stereo not drawn) | > 100 µM |  | 67.8 µM | > 100 µM | > 100 µM |  | 29.5 µM | 27.7 µM | > 100 µM | 60 µM | > 100 µM
O=S1(=O)OCCOS(=O)(=O)C1C1c2ccccc2-c2ccccc21 | > 100 µM |  | > 100 µM | 58.9 µM | > 100 µM |  | 64.5 µM | > 100 µM | > 100 µM | > 100 µM | > 100 µM
Nc1nc(Cl)cc(Oc2ccc(Cl)cc2)n1 | > 100 µM |  | > 100 µM | > 100 µM | > 100 µM |  | > 72.8 µM | > 100 µM | > 100 µM | > 100 µM | > 100 µM
CNC(=O)/C(C#N)=C(\N)N1CCCC1 | > 100 µM |  | > 100 µM | > 100 µM | > 100 µM |  | > 100 µM | > 100 µM | > 100 µM | > 100 µM | > 100 µM
Cc1nc2cc3[nH]c4ccccc4c(=O)c3cc2s1 | > 100 µM |  | > 100 µM | > 100 µM | > 100 µM | > 100 µM | > 100 µM | > 100 µM | > 100 µM | > 100 µM | 
CC(C)(C)c1ccc(OCCOc2ccc(C(C)(C)C)cc2NC=O)c(NC=O)c1 | 4.33 µM |  | 33.5 µM | > 100 µM | > 43.7 µM |  | 24.4 µM | 65.8 µM | > 100 µM | 28.1 µM | > 87.9 µM
c1ccc(C(OCCN2CC3CCC(C2)N3)c2ccccc2)cc1 | 42.2 µM |  | > 100 µM | > 100 µM | > 100 µM |  | 93.1 µM | > 100 µM | > 100 µM | 64.3 µM | > 100 µM
